Measured values published in PMC9329436, “Optimization of the 4-anilinoquin(az)oline scaffold as epidermal growth factor receptor (EGFR) inhibitors for chordoma utilizing a toxicology profiling assay platform” (Scientific Reports, 2022).
Where two headings read alike, the source gives them in different places.

Experiments:
[1] = molecular target: 320 wild-type protein kinases (Homo sapiens, UniProt Q86Z02); type: biochemical; details: singlicate
From the text: (§1) Table S4. Profiling of two compounds at two concentrations against 320 wild-type protein kinases; singlicate measurement; Residual activities (% of control).

[2] = molecular target: 320 wild-type protein kinases (Homo sapiens, UniProt P43250); type: biochemical; details: singlicate
From the text: as §1

[3] = molecular target: 320 wild-type protein kinases (Homo sapiens, UniProt P45983); type: biochemical; details: singlicate
From the text: as §1

[4] = molecular target: T1, 320 wild-type protein kinases (Homo sapiens, UniProt O15146); type: biochemical; details: MUSK, singlicate
T1 sequence (O15146 24-869): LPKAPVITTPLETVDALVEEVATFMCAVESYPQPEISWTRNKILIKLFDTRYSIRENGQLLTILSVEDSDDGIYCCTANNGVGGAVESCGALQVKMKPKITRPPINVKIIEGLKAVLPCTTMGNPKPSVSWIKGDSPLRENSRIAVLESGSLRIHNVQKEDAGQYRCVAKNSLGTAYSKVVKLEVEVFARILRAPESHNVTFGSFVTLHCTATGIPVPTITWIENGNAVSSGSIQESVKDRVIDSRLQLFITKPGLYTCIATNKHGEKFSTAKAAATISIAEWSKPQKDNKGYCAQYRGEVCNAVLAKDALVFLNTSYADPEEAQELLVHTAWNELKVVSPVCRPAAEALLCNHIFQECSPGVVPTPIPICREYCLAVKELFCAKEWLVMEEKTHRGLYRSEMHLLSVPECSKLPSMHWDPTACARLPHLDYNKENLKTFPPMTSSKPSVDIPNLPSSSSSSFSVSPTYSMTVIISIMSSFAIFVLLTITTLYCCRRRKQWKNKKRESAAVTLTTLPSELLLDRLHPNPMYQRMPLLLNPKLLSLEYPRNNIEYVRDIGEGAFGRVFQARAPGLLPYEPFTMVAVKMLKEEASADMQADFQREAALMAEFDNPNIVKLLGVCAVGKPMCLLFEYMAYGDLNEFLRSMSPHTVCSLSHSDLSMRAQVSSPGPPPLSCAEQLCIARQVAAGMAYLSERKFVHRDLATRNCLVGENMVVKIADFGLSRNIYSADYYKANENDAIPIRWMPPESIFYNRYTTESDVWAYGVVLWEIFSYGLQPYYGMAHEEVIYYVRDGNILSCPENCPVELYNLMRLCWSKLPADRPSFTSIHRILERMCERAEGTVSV
From the text: as §1

[5] = molecular target: T2, 320 wild-type protein kinases (Homo sapiens, UniProt Q96PY6); type: biochemical; details: singlicate
T2 sequence (Q96PY6 1-1258): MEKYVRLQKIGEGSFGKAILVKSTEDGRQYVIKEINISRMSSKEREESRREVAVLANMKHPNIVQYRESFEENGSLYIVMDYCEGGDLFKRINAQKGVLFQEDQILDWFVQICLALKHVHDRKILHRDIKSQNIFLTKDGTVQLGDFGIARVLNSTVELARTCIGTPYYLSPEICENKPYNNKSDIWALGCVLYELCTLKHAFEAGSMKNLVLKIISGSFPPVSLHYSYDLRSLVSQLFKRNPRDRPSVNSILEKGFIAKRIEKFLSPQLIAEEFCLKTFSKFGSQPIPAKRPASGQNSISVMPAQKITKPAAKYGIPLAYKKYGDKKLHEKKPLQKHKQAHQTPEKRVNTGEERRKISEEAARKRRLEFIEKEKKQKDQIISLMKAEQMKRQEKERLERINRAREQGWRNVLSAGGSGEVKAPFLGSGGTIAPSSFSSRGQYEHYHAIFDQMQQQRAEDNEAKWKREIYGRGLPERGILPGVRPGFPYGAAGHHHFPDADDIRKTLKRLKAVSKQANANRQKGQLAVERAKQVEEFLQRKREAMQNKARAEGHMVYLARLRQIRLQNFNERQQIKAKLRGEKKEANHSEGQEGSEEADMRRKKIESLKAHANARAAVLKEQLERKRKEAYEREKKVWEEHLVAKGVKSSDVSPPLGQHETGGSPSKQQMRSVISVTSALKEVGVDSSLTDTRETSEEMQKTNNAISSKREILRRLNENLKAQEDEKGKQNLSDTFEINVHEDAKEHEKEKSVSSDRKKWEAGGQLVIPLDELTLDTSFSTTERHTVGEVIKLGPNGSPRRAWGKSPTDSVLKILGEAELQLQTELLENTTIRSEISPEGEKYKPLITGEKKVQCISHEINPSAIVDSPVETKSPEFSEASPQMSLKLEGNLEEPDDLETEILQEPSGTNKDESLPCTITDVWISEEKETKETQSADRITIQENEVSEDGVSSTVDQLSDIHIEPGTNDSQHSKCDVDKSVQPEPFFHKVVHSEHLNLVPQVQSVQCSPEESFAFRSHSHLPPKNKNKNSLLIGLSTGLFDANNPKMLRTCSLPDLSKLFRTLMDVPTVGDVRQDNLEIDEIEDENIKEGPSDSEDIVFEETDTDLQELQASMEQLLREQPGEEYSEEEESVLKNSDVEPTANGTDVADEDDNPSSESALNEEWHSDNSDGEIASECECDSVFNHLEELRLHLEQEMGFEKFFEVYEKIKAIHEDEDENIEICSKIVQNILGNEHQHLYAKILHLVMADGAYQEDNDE
From the text: as §1

[6] = tested on: U-CH12 patient-derived chordoma cell line; assay: Cell viability assay (alamarBlue, 72 h), U-CH12; type: cell-based, human; details: n = 4, 72 h
Outline: (§2)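 Patient-derived chordoma lines and WS1 fibroblasts seeded in 384-well plates, dosed in quadruplicate 24 h after plating.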

[7] = tested on: CH22 patient-derived chordoma cell line; assay: Cell viability assay (alamarBlue, 72 h), CH22; type: cell-based, human; details: n = 4, 72 h
Outline: as §2

[8] = molecular target: ERBB4 (Homo sapiens, UniProt Q15303); assay: 33PanQinase activity assay; type: biochemical; details: for Residual activity: singlicate
From the text: as §1

Chain of 320 wild-type protein kinases (Homo sapiens, UniProt P43250) (P43250 whole entry): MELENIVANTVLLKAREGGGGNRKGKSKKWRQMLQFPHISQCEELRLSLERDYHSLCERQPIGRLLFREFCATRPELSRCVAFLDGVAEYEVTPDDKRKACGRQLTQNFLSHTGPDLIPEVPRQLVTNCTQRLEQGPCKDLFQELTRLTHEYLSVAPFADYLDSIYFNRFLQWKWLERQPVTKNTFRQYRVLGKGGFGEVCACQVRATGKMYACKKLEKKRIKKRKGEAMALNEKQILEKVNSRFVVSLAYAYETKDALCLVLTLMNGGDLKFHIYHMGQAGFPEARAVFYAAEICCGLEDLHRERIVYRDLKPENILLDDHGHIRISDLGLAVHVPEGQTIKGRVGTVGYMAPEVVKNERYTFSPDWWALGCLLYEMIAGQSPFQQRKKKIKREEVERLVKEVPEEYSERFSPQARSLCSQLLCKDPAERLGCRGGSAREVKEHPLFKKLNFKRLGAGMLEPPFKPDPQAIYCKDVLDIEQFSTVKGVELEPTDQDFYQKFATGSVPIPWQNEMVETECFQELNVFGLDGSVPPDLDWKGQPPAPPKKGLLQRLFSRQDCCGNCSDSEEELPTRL
Chain of 320 wild-type protein kinases (Homo sapiens, UniProt Q86Z02) (Q86Z02 whole entry): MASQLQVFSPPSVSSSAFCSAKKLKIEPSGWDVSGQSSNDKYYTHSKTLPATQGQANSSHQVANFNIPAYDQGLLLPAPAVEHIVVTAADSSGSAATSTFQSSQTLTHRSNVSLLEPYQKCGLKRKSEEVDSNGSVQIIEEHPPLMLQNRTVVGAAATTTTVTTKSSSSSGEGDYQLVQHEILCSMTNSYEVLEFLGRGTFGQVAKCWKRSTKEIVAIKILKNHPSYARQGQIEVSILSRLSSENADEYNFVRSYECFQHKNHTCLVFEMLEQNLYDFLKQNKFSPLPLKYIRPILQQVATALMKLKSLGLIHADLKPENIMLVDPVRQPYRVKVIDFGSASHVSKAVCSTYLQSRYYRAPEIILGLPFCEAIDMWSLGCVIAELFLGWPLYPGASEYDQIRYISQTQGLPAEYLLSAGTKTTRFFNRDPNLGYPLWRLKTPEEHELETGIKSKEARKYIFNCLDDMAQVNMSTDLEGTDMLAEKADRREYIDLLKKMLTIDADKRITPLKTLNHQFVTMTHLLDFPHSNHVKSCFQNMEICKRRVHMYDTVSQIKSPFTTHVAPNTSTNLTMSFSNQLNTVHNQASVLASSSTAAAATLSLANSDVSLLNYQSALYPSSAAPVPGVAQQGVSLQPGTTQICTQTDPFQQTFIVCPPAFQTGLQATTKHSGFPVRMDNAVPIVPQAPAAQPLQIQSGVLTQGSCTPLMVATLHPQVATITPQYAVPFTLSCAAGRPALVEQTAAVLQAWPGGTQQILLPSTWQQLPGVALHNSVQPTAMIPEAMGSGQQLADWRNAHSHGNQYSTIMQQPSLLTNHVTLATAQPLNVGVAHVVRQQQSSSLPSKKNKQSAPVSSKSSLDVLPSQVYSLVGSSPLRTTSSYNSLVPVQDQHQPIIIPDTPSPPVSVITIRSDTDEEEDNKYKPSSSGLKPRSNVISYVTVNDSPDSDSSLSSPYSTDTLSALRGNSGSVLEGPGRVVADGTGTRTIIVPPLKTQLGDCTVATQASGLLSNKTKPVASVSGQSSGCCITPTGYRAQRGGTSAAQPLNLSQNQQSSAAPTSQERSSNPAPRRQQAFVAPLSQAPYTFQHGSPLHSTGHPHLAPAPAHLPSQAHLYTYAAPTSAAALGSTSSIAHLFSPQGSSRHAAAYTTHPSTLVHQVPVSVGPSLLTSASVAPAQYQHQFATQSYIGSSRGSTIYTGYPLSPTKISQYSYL
Chain of ERBB4 (Q15303 26-1308): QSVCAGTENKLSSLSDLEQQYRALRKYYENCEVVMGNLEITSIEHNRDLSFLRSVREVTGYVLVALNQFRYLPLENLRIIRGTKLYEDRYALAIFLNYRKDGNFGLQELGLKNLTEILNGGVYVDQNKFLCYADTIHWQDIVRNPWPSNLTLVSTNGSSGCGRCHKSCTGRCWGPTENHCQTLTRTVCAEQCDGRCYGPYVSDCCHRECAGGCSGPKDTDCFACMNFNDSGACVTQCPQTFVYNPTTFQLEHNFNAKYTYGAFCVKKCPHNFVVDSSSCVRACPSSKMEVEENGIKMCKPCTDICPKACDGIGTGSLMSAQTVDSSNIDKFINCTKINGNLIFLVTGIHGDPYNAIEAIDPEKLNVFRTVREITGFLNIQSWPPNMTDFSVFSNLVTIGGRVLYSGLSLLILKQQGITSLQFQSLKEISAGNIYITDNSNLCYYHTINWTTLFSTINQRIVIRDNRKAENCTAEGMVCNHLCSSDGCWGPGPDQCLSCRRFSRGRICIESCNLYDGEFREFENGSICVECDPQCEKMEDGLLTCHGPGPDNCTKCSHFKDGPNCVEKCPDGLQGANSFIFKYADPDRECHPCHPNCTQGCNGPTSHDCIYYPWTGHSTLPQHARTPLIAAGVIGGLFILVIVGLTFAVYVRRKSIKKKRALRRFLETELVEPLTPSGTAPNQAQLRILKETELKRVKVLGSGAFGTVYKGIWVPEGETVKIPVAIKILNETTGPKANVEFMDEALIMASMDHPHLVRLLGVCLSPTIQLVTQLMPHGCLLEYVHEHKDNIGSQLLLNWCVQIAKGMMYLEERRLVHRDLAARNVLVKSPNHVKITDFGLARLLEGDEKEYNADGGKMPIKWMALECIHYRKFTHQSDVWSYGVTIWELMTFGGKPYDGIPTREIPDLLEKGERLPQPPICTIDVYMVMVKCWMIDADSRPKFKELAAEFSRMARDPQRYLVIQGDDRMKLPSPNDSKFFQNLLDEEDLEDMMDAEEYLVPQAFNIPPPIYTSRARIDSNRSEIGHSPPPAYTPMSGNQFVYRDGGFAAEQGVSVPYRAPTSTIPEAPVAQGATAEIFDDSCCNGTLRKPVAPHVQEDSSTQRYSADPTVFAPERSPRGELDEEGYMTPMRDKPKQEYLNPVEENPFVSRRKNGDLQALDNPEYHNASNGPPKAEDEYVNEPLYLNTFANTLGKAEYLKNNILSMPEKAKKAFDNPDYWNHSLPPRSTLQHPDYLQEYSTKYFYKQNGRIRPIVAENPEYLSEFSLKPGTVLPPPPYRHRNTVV
Chain of 320 wild-type protein kinases (Homo sapiens, UniProt P45983) (P45983 whole entry): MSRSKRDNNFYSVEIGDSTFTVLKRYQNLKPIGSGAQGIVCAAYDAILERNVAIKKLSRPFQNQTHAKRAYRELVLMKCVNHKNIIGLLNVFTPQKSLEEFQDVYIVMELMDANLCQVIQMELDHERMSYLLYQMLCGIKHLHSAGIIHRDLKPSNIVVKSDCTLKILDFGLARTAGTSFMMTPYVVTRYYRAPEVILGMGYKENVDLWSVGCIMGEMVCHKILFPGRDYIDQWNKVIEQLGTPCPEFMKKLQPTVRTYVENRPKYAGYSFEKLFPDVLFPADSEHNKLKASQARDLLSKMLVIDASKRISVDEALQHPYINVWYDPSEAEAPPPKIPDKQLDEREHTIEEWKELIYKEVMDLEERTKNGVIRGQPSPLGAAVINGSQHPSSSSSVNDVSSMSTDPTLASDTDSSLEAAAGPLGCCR

| Compound | Residual activity ([1]; HIPK1, 1.0E-06 M) | Residual activity ([1]; HIPK1, 1.0E-07 M) | Residual activity ([2]; GRK6, 1.0E-06 M) | Residual activity ([2]; GRK6, 1.0E-07 M) | Residual activity ([3]; JNK1, 1.0E-06 M) | Residual activity ([3]; JNK1, 1.0E-07 M) | Residual activity ([4]; 1.0E-06 M) | Residual activity ([4]; 1.0E-07 M) | Residual activity ([5]; NEK1, 1.0E-06 M) | Residual activity ([5]; NEK1, 1.0E-07 M) | IC50 [6] [µM] | IC50 [7] [µM] | ERBB4 inhibition ([8]; 10 μM) [%] | Residual activity ([8]; ERBB4, 1.0E-06 M) | Residual activity ([8]; ERBB4, 1.0E-07 M) | ERBB4 inhibition ([8]; 1 μM) |
| --- | --- | --- | --- | --- | --- | --- | --- | --- | --- | --- | --- | --- | --- | --- | --- | --- |
| C#Cc1cc(Nc2ncnc3cc(I)ccc23)ccc1Cl [Compound 41] | 87 % of control | 98 % of control | 120 % of control | 124 % of control | 91 % of control | 90 % of control | 96 % of control | 94 % of control | 82 % of control | 86 % of control | 0.96 | 0.48 | > 50 | 44 % of control | 92 % of control |  |
| C#Cc1cc(Nc2ncnc3cc(OC)c(OC)cc23)ccc1Cl [Compound 45] | 80 % of control | 79 % of control | 101 % of control | 133 % of control | 94 % of control | 113 % of control | 87 % of control | 94 % of control | 89 % of control | 89 % of control | 3 | 1.2 |  | 7 % of control | 34 % of control | moderate inhibition |
